Source: the NIST ThermoML archive (doi:10.1016/j.jct.2005.08.009)
Numbers after ± are expanded uncertainties.

Test: xn = mol fraction of the nth substance listed
Conditions: 101 kPa, Liquid

SMILES: CC#N [acetonitrile] + O
- mass density (298.15 K, x1 = 0.051): 978.98 ± 0.63 kg/m3
- viscosity (298.15 K, x1 = 0.051): 0.9849 ± 0.012 mPa·s
- mass density (298.15 K, x1 = 0.1169): 954.73 ± 0.78 kg/m3
- viscosity (298.15 K, x1 = 0.1169): 0.9567 ± 0.012 mPa·s
- mass density (298.15 K, x1 = 0.1971): 924.74 ± 0.97 kg/m3
- viscosity (298.15 K, x1 = 0.1971): 0.8743 ± 0.011 mPa·s
- mass density (298.15 K, x1 = 0.2728): 900.14 ± 1.1 kg/m3
- viscosity (298.15 K, x1 = 0.2728): 0.7891 ± 0.01 mPa·s
- mass density (298.15 K, x1 = 0.3601): 876.35 ± 1.3 kg/m3
- viscosity (298.15 K, x1 = 0.3601): 0.6953 ± 0.0091 mPa·s
- mass density (298.15 K, x1 = 0.4417): 857.17 ± 1.4 kg/m3
- viscosity (298.15 K, x1 = 0.4417): 0.6061 ± 0.0081 mPa·s
- mass density (298.15 K, x1 = 0.5204): 841.27 ± 1.5 kg/m3
- viscosity (298.15 K, x1 = 0.5204): 0.5387 ± 0.0074 mPa·s
- mass density (298.15 K, x1 = 0.6012): 826.9 ± 1.6 kg/m3
- viscosity (298.15 K, x1 = 0.6012): 0.4802 ± 0.0068 mPa·s
- mass density (298.15 K, x1 = 0.6671): 816.3 ± 1.6 kg/m3
- viscosity (298.15 K, x1 = 0.6671): 0.4415 ± 0.0063 mPa·s
- mass density (298.15 K, x1 = 0.7398): 805.64 ± 1.7 kg/m3
- viscosity (298.15 K, x1 = 0.7398): 0.4064 ± 0.006 mPa·s
- mass density (298.15 K, x1 = 0.8253): 794.81 ± 1.8 kg/m3
- viscosity (298.15 K, x1 = 0.8253): 0.3722 ± 0.0056 mPa·s
- mass density (298.15 K, x1 = 0.886): 787.78 ± 1.8 kg/m3
- viscosity (298.15 K, x1 = 0.886): 0.3561 ± 0.0054 mPa·s
- mass density (298.15 K, x1 = 0.9389): 782.44 ± 1.9 kg/m3
- viscosity (298.15 K, x1 = 0.9389): 0.3478 ± 0.0053 mPa·s
- viscosity (298.15 K, x1 = 0.999): 0.3418 ± 0.0053 mPa·s
- mass density (298.15 K, x1 = 1): 776.69 ± 1.9 kg/m3
- viscosity (298.15 K, x1 = 1): 0.3417 ± 0.0053 mPa·s
- mass density (303.15 K, x1 = 0.051): 975.65 ± 0.65 kg/m3
- viscosity (303.15 K, x1 = 0.051): 0.8799 ± 0.011 mPa·s
- mass density (303.15 K, x1 = 0.1169): 951.24 ± 0.8 kg/m3
- viscosity (303.15 K, x1 = 0.1169): 0.8628 ± 0.011 mPa·s
- mass density (303.15 K, x1 = 0.1971): 921.1 ± 0.99 kg/m3
- viscosity (303.15 K, x1 = 0.1971): 0.7931 ± 0.01 mPa·s
- mass density (303.15 K, x1 = 0.2728): 896.29 ± 1.1 kg/m3
- viscosity (303.15 K, x1 = 0.2728): 0.7152 ± 0.0093 mPa·s
- mass density (303.15 K, x1 = 0.3601): 872.19 ± 1.3 kg/m3
- viscosity (303.15 K, x1 = 0.3601): 0.6298 ± 0.0084 mPa·s
- mass density (303.15 K, x1 = 0.4417): 852.79 ± 1.4 kg/m3
- viscosity (303.15 K, x1 = 0.4417): 0.5574 ± 0.0076 mPa·s
- mass density (303.15 K, x1 = 0.5204): 836.65 ± 1.5 kg/m3
- viscosity (303.15 K, x1 = 0.5204): 0.4972 ± 0.0069 mPa·s
- mass density (303.15 K, x1 = 0.6012): 822.15 ± 1.6 kg/m3
- viscosity (303.15 K, x1 = 0.6012): 0.4473 ± 0.0064 mPa·s
- mass density (303.15 K, x1 = 0.6671): 811.49 ± 1.7 kg/m3
- viscosity (303.15 K, x1 = 0.6671): 0.4138 ± 0.006 mPa·s
- mass density (303.15 K, x1 = 0.7398): 800.78 ± 1.7 kg/m3
- viscosity (303.15 K, x1 = 0.7398): 0.3831 ± 0.0057 mPa·s
- mass density (303.15 K, x1 = 0.8253): 789.89 ± 1.8 kg/m3
- viscosity (303.15 K, x1 = 0.8253): 0.3545 ± 0.0054 mPa·s
- mass density (303.15 K, x1 = 0.886): 782.84 ± 1.9 kg/m3
- viscosity (303.15 K, x1 = 0.886): 0.3405 ± 0.0052 mPa·s
- mass density (303.15 K, x1 = 0.9389): 777.52 ± 1.9 kg/m3
- viscosity (303.15 K, x1 = 0.9389): 0.333 ± 0.0052 mPa·s
- viscosity (303.15 K, x1 = 0.999): 0.3281 ± 0.0051 mPa·s
- mass density (303.15 K, x1 = 1): 771.89 ± 1.9 kg/m3
- viscosity (303.15 K, x1 = 1): 0.328 ± 0.0051 mPa·s
- mass density (308.15 K, x1 = 0.051): 972.14 ± 0.67 kg/m3
- viscosity (308.15 K, x1 = 0.051): 0.7964 ± 0.01 mPa·s
- mass density (308.15 K, x1 = 0.1169): 947.08 ± 0.83 kg/m3
- viscosity (308.15 K, x1 = 0.1169): 0.7842 ± 0.01 mPa·s
- mass density (308.15 K, x1 = 0.1971): 916.51 ± 1 kg/m3
- viscosity (308.15 K, x1 = 0.1971): 0.7218 ± 0.0094 mPa·s
- mass density (308.15 K, x1 = 0.2728): 891.33 ± 1.2 kg/m3
- viscosity (308.15 K, x1 = 0.2728): 0.6502 ± 0.0086 mPa·s
- mass density (308.15 K, x1 = 0.3601): 866.86 ± 1.3 kg/m3
- viscosity (308.15 K, x1 = 0.3601): 0.5737 ± 0.0078 mPa·s
- mass density (308.15 K, x1 = 0.4417): 846.98 ± 1.5 kg/m3
- viscosity (308.15 K, x1 = 0.4417): 0.5121 ± 0.0071 mPa·s
- mass density (308.15 K, x1 = 0.5204): 830.76 ± 1.6 kg/m3
- viscosity (308.15 K, x1 = 0.5204): 0.4606 ± 0.0065 mPa·s
- mass density (308.15 K, x1 = 0.6012): 816.07 ± 1.6 kg/m3
- viscosity (308.15 K, x1 = 0.6012): 0.4189 ± 0.0061 mPa·s
- mass density (308.15 K, x1 = 0.6671): 805.22 ± 1.7 kg/m3
- viscosity (308.15 K, x1 = 0.6671): 0.3902 ± 0.0058 mPa·s
- mass density (308.15 K, x1 = 0.7398): 794.39 ± 1.8 kg/m3
- viscosity (308.15 K, x1 = 0.7398): 0.3633 ± 0.0055 mPa·s
- mass density (308.15 K, x1 = 0.8253): 783.52 ± 1.9 kg/m3
- viscosity (308.15 K, x1 = 0.8253): 0.3386 ± 0.0052 mPa·s
- mass density (308.15 K, x1 = 0.886): 776.44 ± 1.9 kg/m3
- viscosity (308.15 K, x1 = 0.886): 0.3259 ± 0.0051 mPa·s
- mass density (308.15 K, x1 = 0.9389): 771.07 ± 1.9 kg/m3
- viscosity (308.15 K, x1 = 0.9389): 0.3173 ± 0.005 mPa·s
- viscosity (308.15 K, x1 = 0.999): 0.313 ± 0.0049 mPa·s
- mass density (308.15 K, x1 = 1): 765.46 ± 2 kg/m3
- viscosity (308.15 K, x1 = 1): 0.3129 ± 0.0049 mPa·s
- mass density (313.15 K, x1 = 0.051): 969.11 ± 0.69 kg/m3
- viscosity (313.15 K, x1 = 0.051): 0.7208 ± 0.0093 mPa·s
- mass density (313.15 K, x1 = 0.1169): 943.32 ± 0.85 kg/m3
- viscosity (313.15 K, x1 = 0.1169): 0.7155 ± 0.0093 mPa·s
- mass density (313.15 K, x1 = 0.1971): 912.69 ± 1.1 kg/m3
- viscosity (313.15 K, x1 = 0.1971): 0.6628 ± 0.0087 mPa·s
- mass density (313.15 K, x1 = 0.2728): 887.31 ± 1.2 kg/m3
- viscosity (313.15 K, x1 = 0.2728): 0.5951 ± 0.008 mPa·s
- mass density (313.15 K, x1 = 0.3601): 862.67 ± 1.4 kg/m3
- viscosity (313.15 K, x1 = 0.3601): 0.5266 ± 0.0073 mPa·s
- mass density (313.15 K, x1 = 0.4417): 842.61 ± 1.5 kg/m3
- viscosity (313.15 K, x1 = 0.4417): 0.4744 ± 0.0067 mPa·s
- mass density (313.15 K, x1 = 0.5204): 826.18 ± 1.6 kg/m3
- viscosity (313.15 K, x1 = 0.5204): 0.4317 ± 0.0062 mPa·s
- mass density (313.15 K, x1 = 0.6012): 811.38 ± 1.7 kg/m3
- viscosity (313.15 K, x1 = 0.6012): 0.3959 ± 0.0058 mPa·s
- mass density (313.15 K, x1 = 0.6671): 800.45 ± 1.8 kg/m3
- viscosity (313.15 K, x1 = 0.6671): 0.3698 ± 0.0056 mPa·s
- mass density (313.15 K, x1 = 0.7398): 789.71 ± 1.8 kg/m3
- viscosity (313.15 K, x1 = 0.7398): 0.3471 ± 0.0053 mPa·s
- mass density (313.15 K, x1 = 0.8253): 778.81 ± 1.9 kg/m3
- viscosity (313.15 K, x1 = 0.8253): 0.3256 ± 0.0051 mPa·s
- mass density (313.15 K, x1 = 0.886): 771.75 ± 1.9 kg/m3
- viscosity (313.15 K, x1 = 0.886): 0.3142 ± 0.005 mPa·s
- mass density (313.15 K, x1 = 0.9389): 766.36 ± 2 kg/m3
- viscosity (313.15 K, x1 = 0.9389): 0.3061 ± 0.0049 mPa·s
- viscosity (313.15 K, x1 = 0.999): 0.301 ± 0.0048 mPa·s
- mass density (313.15 K, x1 = 1): 760.86 ± 2 kg/m3
- viscosity (313.15 K, x1 = 1): 0.3009 ± 0.0048 mPa·s
- mass density (318.15 K, x1 = 0.051): 965.89 ± 0.71 kg/m3
- viscosity (318.15 K, x1 = 0.051): 0.6522 ± 0.0086 mPa·s
- mass density (318.15 K, x1 = 0.1169): 939.05 ± 0.88 kg/m3
- viscosity (318.15 K, x1 = 0.1169): 0.6524 ± 0.0086 mPa·s
- mass density (318.15 K, x1 = 0.1971): 908.03 ± 1.1 kg/m3
- viscosity (318.15 K, x1 = 0.1971): 0.6069 ± 0.0081 mPa·s
- mass density (318.15 K, x1 = 0.2728): 882.39 ± 1.2 kg/m3
- viscosity (318.15 K, x1 = 0.2728): 0.5462 ± 0.0075 mPa·s
- mass density (318.15 K, x1 = 0.3601): 857.41 ± 1.4 kg/m3
- viscosity (318.15 K, x1 = 0.3601): 0.4853 ± 0.0068 mPa·s
- mass density (318.15 K, x1 = 0.4417): 837.06 ± 1.5 kg/m3
- viscosity (318.15 K, x1 = 0.4417): 0.4435 ± 0.0064 mPa·s
- mass density (318.15 K, x1 = 0.5204): 820.41 ± 1.6 kg/m3
- viscosity (318.15 K, x1 = 0.5204): 0.4089 ± 0.006 mPa·s
- mass density (318.15 K, x1 = 0.6012): 805.44 ± 1.7 kg/m3
- viscosity (318.15 K, x1 = 0.6012): 0.3783 ± 0.0056 mPa·s
- mass density (318.15 K, x1 = 0.6671): 794.36 ± 1.8 kg/m3
- viscosity (318.15 K, x1 = 0.6671): 0.3556 ± 0.0054 mPa·s
- mass density (318.15 K, x1 = 0.7398): 783.69 ± 1.9 kg/m3
- viscosity (318.15 K, x1 = 0.7398): 0.3353 ± 0.0052 mPa·s
- mass density (318.15 K, x1 = 0.8253): 772.68 ± 1.9 kg/m3
- viscosity (318.15 K, x1 = 0.8253): 0.3159 ± 0.005 mPa·s
- mass density (318.15 K, x1 = 0.886): 765.67 ± 2 kg/m3
- viscosity (318.15 K, x1 = 0.886): 0.3039 ± 0.0048 mPa·s
- mass density (318.15 K, x1 = 0.9389): 760.29 ± 2 kg/m3
- viscosity (318.15 K, x1 = 0.9389): 0.2963 ± 0.0048 mPa·s
- viscosity (318.15 K, x1 = 0.999): 0.29 ± 0.0047 mPa·s
- mass density (318.15 K, x1 = 1): 754.76 ± 2 kg/m3
- viscosity (318.15 K, x1 = 1): 0.2899 ± 0.0047 mPa·s
